Row | Compound | pH of 1% w/v aqueous solution
1 | O=C([O-])CC(O)(CC(=O)[O-])C(=O)[O-].[Na+].[Na+].[Na+] [Sodium Citrate, sodium citrate] | pH 8.75
2 | O=C([O-])O.[Na+] [Sodium Bicarbonate, sodium bicarbonate] | pH 8.2
